Literature values as cited in publication PMC13427755 (Nature Communications, 2026).
Read-outs that look alike come from different tables or passages of the source.

System: SP-D
Conditions: at 12 weeks, cited from earlier work

Row | Compound | decrease in SP-D (INMARK study of nintedanib) [%] | decrease in SP-D (CAPACITY study of pirfenidone) [%]
1 | COC(=O)c1ccc2c(c1)NC(=O)/C2=C(\Nc1ccc(N(C)C(=O)CN2CCN(C)CC2)cc1)c1ccccc1 [nintedanib] | 4 | –
2 | Cc1ccc(=O)n(-c2ccccc2)c1 [pirfenidone] | – | 5
